Measured values as given in patent US11245111B2, “Stable positive side material for all-organic flow battery” (UNIVERSITY OF SOUTHERN CALIFORNIA, priority 2017, dated 2022).

Assay: Proto-desulfonation studies (heat treatment in sulfuric acid)
Format: physicochemical
Details: 1 M solution, 24 hours in 1M sulfuric acid at 60 degrees Celsius
Experimental: Proto-Desulfonation Studies.
We determined that the molecule was stable against proto-desulfonation, by heat treatment of 1 M solution of DHDMDS 24 hours in 1M sulfuric acid at 60 degrees Celsius. […] If decomposition occurred there would be the formation of a precipitate of an insoluble de-sulfonated material.

| stability against proto-desulfonation (decomposition products observed) | SMILES |
| --- | --- |
| no decomposition products | Cc1c(O)c(C)c(S(=O)(=O)O)c(O)c1S(=O)(=O)O [DHDMDS, 2,5-dihydroxy-4,6-dimethylbenzene-1,3-disulfonic acid] |
| decomposes readily | Cc1cc(O)c(S(=O)(=O)O)c(C)c1O [DHDMBS, 2,5-dihydroxy-4,6-dimethylbenzene-1-sulfonic acid] |
